The source of these data is US20160243022A1, “Use of Fermented Milk Product for Skin Treatment” (GIVAUDAN S.A., priority 2006, published 2016).

The structures appear in SMILES notation.

This assay concerns normal human dermal fibroblasts (NHDF). Put plainly: [3H] proline incorporation into intracellular and ECM layer proteins (collagen synthesis). The conditions noted are these: 20 micro g/ml. It is filed as cell-based. The protocol: Normal human dermal fibroblasts (NHDF) were cultured in-vitro with radio labelled [^3H] proline. Collagen is a proline-rich protein. The level of radio labelled proline found in proteins, following culturing of the NHDF, is a measure of the rate of collagen synthesis. Yogurtene™ can be added to the cell culture to measure the effect of Yogurtene™ on the rate of proline uptake (collagen synthesis).
The study investigated the increase in radio labelled proline found in: (i) soluble/secreted proteins, and (ii) intracellular and extra-cellular matrix (ECM) proteins.
Beta-Transforming Growth Factor (β-TGF) and ascorbic acid are known collagen synthesis promoters and were used as controls in both studies.

For `O=C1O[C@H]([C@@H](O)CO)C(O)=C1O` [Ascorbic acid], the “Proline incorporation into intracellular & ECM layer proteins” value turned out to be 12764 Count/min.
